# Measured values: US20150338397A1, “Use of Bufodienolides in Diagnosing and Treating Essential Hypertension” (priority 2014, published 2015)
# Columns and labels:
# [1] = in vitro; cited from earlier work
# [2] = system: volume expansion-mediated hypertension; conditions: experimental animals; cited from earlier work
# [3] = system: animals subjected to angiotensin excess; conditions: cited from earlier work
# [4] = system: preeclampsia in animal models; conditions: cited from earlier work
# [5] = system: volume expansion induced hypertensive rats; assay: Systolic blood pressure in saline volume expansion induced hypertensive rats (NDS); format: in vivo; conditions: NDS rats given resibufogenin (NDSR) vs NDS; FIG. 1
# Source text: (§1) FIG. 1. Mean systolic blood pressure (BP) values in sham (SHM) animals, angiotensin-infused rats (ANG), angiotensin infused animals given resibufogenin (ANGR), normal rats rendered hypertensive by the infusion of saline (volume expansion induced hypertensive rats) (NDS), NDS rats given resibufogenin (NDSR).
# angiotensin-infused rats = assay: Systolic blood pressure in angiotensin-infused rats (ANG); format: in vivo; conditions: FIG. 1
# Source text: as §1
# [6] = system: rodent brain contusion model; conditions: given 1 hour after the insult; cited from earlier work
compound,measurement,setting,value
"C[C@]12CC[C@H](O)C[C@@]1(O)CC[C@@H]1[C@@H]2CC[C@]2(C)[C@@H](c3ccc(=O)oc3)C[C@H]3O[C@]132 [MBG, marinobufagenin]",Vasoconstrictor action,[1],acts in vitro as a vasoconstrictor
"C[C@]12CC[C@H](O)C[C@H]1CC[C@@H]1[C@@H]2CC[C@]2(C)[C@@H](c3ccc(=O)oc3)C[C@H]3O[C@]132 [RBG, epoxy-3β-hydroxy-5β-bufa-20,22-dienolide]",Blood pressure elevations,[2],resolves blood pressure elevations
same,Elevated blood pressure,[3],does not lower elevated blood pressure
same,Prevention of preeclampsia,[4],prevents preeclampsia
same,Mean systolic blood pressure (BP),[5],reduced blood pressure
same,Mean systolic blood pressure (BP),angiotensin-infused rats; angiotensin infused animals given resibufogenin (ANGR) vs ANG,only in the volume expanded animals
same,Tissue injury,[6],amelioration of tissue injury
"angiotensin (DRVYIHPF; Angiotensin-2; UniProt P01019 25-32, looked up) [the major vasoconstrictor in the human body; infused to render rats hypertensive]","Mean systolic blood pressure (BP), effect of angiotensin infusion",angiotensin-infused rats; angiotensin-infused rats (ANG) vs sham (SHM),raised blood pressure equivalently
